Results: patent US9962367B2, “Oral formulations of pyrrolidine derivatives” (ObsEva S.A., priority 2013, dated 2018)

Test: Qualitative solubility/crystallisation tests on 15 mg scale
Type: physicochemical

Dissolves in (solvent DIPE, hot): 40 vol hot
Dissolves in (solvent IPA, hot): 4 vol hot
Dissolves in (solvent MIBK, hot): 4 vol hot
Dissolves in (solvent THF, cold): 4 vol cold
Dissolves in (solvent tBuOH, hot): 6 vol hot
Dissolves in (solvent toluene, cold): 2 vol cold
Structure (SMILES): CO/N=C1/C[C@@H](CO)N(C(=O)c2ccc(-c3ccccc3C)cc2)C1 [(3Z,5S), (3Z,5S)-5-(hydroxymethyl)-1-[(2′-methyl-1,1′-biphenyl-4-yl)carbonyl]pyrrolidin-3-one-O-methyloxime]
